According to patent US20180116224A1, “PESTICIDAL COMPOSITIONS AND RELATED METHODS” (priority 2015, published 2018):

Test system: green peach aphid (Myzus persicae)
Assay: pesticidal activity against green peach aphid on cabbage plants after soil treatment
Format: in vivo
Details: for number of live GPA aphids: 6.25 ppm loading, no soil conditioner
Description: Each tested compositions was prepared by mixing a predetermined amount of the CLOSER® SC insecticide (a sulfoxaflor concentrate having a sulfoxaflor concentration of 240 g/L) with a predetermined amount of the organic soil conditioner ACCELL®-STR in an aqueous medium.
The compositions containing different amounts of sulfoxaflor and the organic soil conditioner ACCELL®-STR were prepared as shown in TABLE 1. For example, the “Sulfoxaflor at 6.25 ppm” composition contained about 0.003% weight of sulfoxaflor based on total weight of the composition (i.e., 6.25 ppm of sulfoxaflor per one gram of final soil mixture). “Sulfoxaflor at 6.25 ppm+ACCELL®-STR at 384 ppm” composition contained about 0.003% weight of sulfoxaflor based on total weight of the composition (i.e., 6.25 ppm of sulfoxaflor per one gram of final soil mixture), and about 0.225% weight of the organic soil conditioner ACCELL®-STR based on total weight of the composition (i.e., 384 ppm per one gram of the final soil mixture; 1500 ppm per one gram of the total soil liquid).
The imidacloprid pesticide PROVADO® 1.6 from Bayer CropScience LP (North Carolina, USA) was used as a standard commercial pesticidal composition for aphid control. The imidacloprid pesticide PROVADO® 1.6 was tested at the same loading as that used for the sulfoxaflor, which was 6.25 ppm per gram of final soil mixture.
In this EXAMPLE 4, water was tested as a control composition. Furthermore, an aqueous solution of the organic soil conditioner ACCELL®-STR was tested.
Cabbage plants (Brassica oleracea capitata L) of uniform size (two new leaf stage) infested with green peach aphids (Myzus persicae) (“GPA”) were used as the study models according to the following procedure:
Cabbage seeds were planted in 3-inch pots containing a peat-based METRO MIX 360® potting soil available from SUN GRO® Horticulture Canada, Ltd. The seeds were propagated in greenhouse zone G4, located in the R&D building of Dow AgroSciences (Indianapolis, Ind., USA), at 26° C. with a relative humidity of 53%. Natural light was supplemented with 1,000-watt metal halide overhead lamps with an average illumination of about 500 μE/m^2.s photosynthetic active radiation for 16 consecutive hours each day.
Each of the 1-ounce clear cups was filled with about 30 grams of the inoculated Midwest field soil having the components as shown in TABLE 2. […] The soil moisture of the Midwest field soil was about 15% as measured by Mettler LJ16 Moisture Analyzer (15 minutes and 100° C.).
The Midwest field soil in each selected 1-ounce cup was treated with about 9 mL of the selected composition using a 10 mL pipette. […]
The pesticidal activity against GPA was determined three days after infestation, by counting the number of live GPA aphids present on each cabbage plant. […]

[1] = dose rate 6.25 ppm sulfoxaflor alone

C[C@@H](c1ccc(C(F)(F)F)nc1)[S@](C)(=O)=NC#N (racemic) [Sulfoxaflor, [methyl(oxo){1-[6-(trifluoromethyl)-3-pyridyl]ethyl}-λ^6-sulfanylidene]cyanamide]
number of live GPA aphids (DAT of 21 days, counted three days after infestation): about 10
number of live GPA aphids (DAT of 28 days): about 90
% Control at DAT of 21 days [1]: 91.19%
% Control at DAT of 28 days [1]: 0%
